Test system: cabbage root fly
Test: Swede field trials in Norway, cabbage root fly damage (four sites)
Assay type: in vivo
Protocol: An extensive program of non-public field trials, which included five crops of swede were carried out. The field trials design was based around multiple applications of either ECOguard® liquid (garlic juice concentrate) or granules (wood flour granules impregnated with the garlic juice concentrate) and in four out of the five swede trials was referenced against Dimethoate as a standard.

CNC(=O)CSP(=S)(OC)OC [Dimethoate]
Combined root damage index (RDI), % Change (in vivo): −5.8% | Combined root damage index (RDI), Ga-Fa (in vivo): 65.78 | Combined root damage index (RDI), Mid-Troms (in vivo): 40.60 | Combined root damage index (RDI), Sor Ost (in vivo): 24.92 | Combined root damage index (RDI), Toten (in vivo): 44.33 | Difference of Means (trt 1 control subtracted from trt), cabbage root fly damage (in vivo): −0.3100 | cabbage root fly damage, statistical analysis (in vivo): significantly reduced damage | mean saleable yield (cat 1 + 2), % Change (mean of four sites versus control): +8%

Source: patent US9526254B2, “Pesticide and repellant” (ECOSPRAY LIMITED, priority 2005, dated 2016)
